pEC50: −log10 of the molar value.
Assays:
[1] = test system: Huh7 (hepatocellular carcinoma) cell line; assay: CellTiter-Glo luminescent cell viability assay, Huh7; format: cell-based, human; conditions: Homo sapiens, Huh-7; for viability at 4 µM: Huh7, compound at 4 μM; for viability at 4 µM / viability at 10 µM: 72 h; for viability at 10 µM: Huh7, compound at 10 μM; for pEC50: Huh7 cell line, 72 h incubation, CellTiter-Glo, read-out: EC50, growth inhibition of Huh7
Outline: (§1)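 Adherent lines plated overnight, MOLM-14 (suspension) 1 h before dosing, in medium with 10% FBS at 37 °C, 5% CO2. Compounds added at varying concentrations for 72 h; CellTiter-Glo luminescence read, EC50 as dose reducing signal to 50% of diluent-treated cells, at least duplicate points.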

[2] = test system: HCT-116 (colorectal carcinoma) cell line; assay: CellTiter-Glo luminescent cell viability assay, HCT-116; format: cell-based, human; conditions: Homo sapiens; for viability at 4 µM: HCT-116, compound at 4 μM; for viability at 4 µM / viability at 10 µM: 72 h; for viability at 10 µM: HCT-116, compound at 10 μM; for pEC50: HCT-116 cell line, 72 h incubation, CellTiter-Glo, read-out: EC50, growth inhibition of HCT-116
Outline: as §1

[3] = test system: 786-O (renal adenocarcinoma) cell line; assay: CellTiter-Glo luminescent cell viability assay, 786-O; format: cell-based, human; conditions: Homo sapiens, 786-0; for pEC50: 786-O cell line, 72 h incubation, CellTiter-Glo, read-out: EC50, growth inhibition of 786-O; for viability at 4 µM / viability at 10 µM: 786-O, 72 h; for viability at 4 µM: compound at 4 μM; for viability at 10 µM: compound at 10 μM
Outline: as §1

[4] = test system: HepG2 (hepatocellular carcinoma) cell line; assay: CellTiter-Glo luminescent cell viability assay, HepG2; format: cell-based, human; conditions: Homo sapiens; for viability at 4 µM / viability at 10 µM: HepG2, HepG, 72 h; for viability at 4 µM: compound at 4 μM; for viability at 10 µM: compound at 10 μM; for pEC50: HepG2 cell line, 72 h incubation, CellTiter-Glo, read-out: EC50, growth inhibition of HepG2
Outline: as §1

[5] = test system: MOLM-14 (acute myeloid leukemia) cell line; assay: CellTiter-Glo luminescent cell viability assay, MOLM-14; format: cell-based, human; conditions: Homo sapiens; for viability at 4 µM: MOLM-14, compound at 4 μM; for viability at 4 µM / viability at 10 µM: 72 h; for viability at 10 µM: MOLM-14, compound at 10 μM; for pEC50: MOLM-14 cell line, 72 h incubation, CellTiter-Glo, read-out: EC50, growth inhibition of MOLM-14
Outline: as §1

[6] = test system: A375 (malignant melanoma) cell line; assay: CellTiter-Glo luminescent cell viability assay, A375; format: cell-based, human; conditions: Homo sapiens, A-375; for viability at 4 µM: A375, compound at 4 μM; for viability at 4 µM / viability at 10 µM: 72 h; for viability at 10 µM: A375, compound at 10 μM; for pEC50: A375 cell line, 72 h incubation, CellTiter-Glo, read-out: EC50, growth inhibition of A375
Outline: as §1

[7] = test system: PANC-1 (prancreatic carcinoma) cell line; assay: CellTiter-Glo luminescent cell viability assay, PANC-1; format: cell-based; conditions: Homo sapiens; for viability at 4 µM: PANC-1, 4 μM; for viability at 4 µM / viability at 10 µM: 72 h, % of signal of diluent-treated cultures; for viability at 10 µM: PANC-1, 10 μM
Method: All cell lines were maintained in medium containing 1% penicillin-streptomycin (Dutscher, P06-07100) and 10% Fetal Bovine Serum (Hyclone Dutscher, RZK35922) cultured at 37° C. with 5% CO2. HepG2 (hepatocellular carcinoma), cell line was cultured in Dulbecco's modified Eagle's medium low glucose (Gibco, 21885025), Huh7 (hepatocellular carcinoma), HCT-116 (colorectal carcinoma), PANC-1 (prancreatic carcinoma) and A375 (malignant melanoma) cell lines were cultured in Dulbecco's modified Eagle's medium (Dutscher, L0103). MOLM-14 (acute myeloid leukemia) cell line was maintained in MEM alpha medium (Gibco, 22561-021). 786-0 (renal adenocarcinoma) cell lines were maintained in RPMI 1640 medium (Dutscher, L0498).
Cell viability was measured using the CellTiter-Glo® luminescent cell viability assay as described by the manufacturer (Promega, Ref G7571) using an Infinite F200Pro luminometer (Tecan). Briefly, for adherent cells, cells were plated onto 96-well plates (white with clear bottom) in 90 μL of media per well and were allowed to grow overnight before the assay. For cells growing in suspension, cells were plated onto 96-well plates 1 h before the assay.
Compounds were resuspended in H2O or DMSO and added at different concentrations to each well, and cell cultures were incubated for 72 h. Each diluent (H2O or DMSO) were used as a control, and all compounds were tested in a constant percentage of H2O or DMSO. On the day of the reading, plates are equilibrated 30 min at room temperature before the addition of 100 μL of CellTiter-Glo® and luminescence was measured using an Infinite F200Pro (Tecan). % cell viability were expressed as a percentage of the signal obtained for cell cultures treated with diluent. EC50 values were determined as the dose of compound required to reduce luminescent values to 50% of the signal obtained for cell cultures treated with diluent. The experimental data were analyzed using a computer program, Graphpad Prism v5 (GraphPad Software, Inc. La Jolla, Calif.). All points were at least done in duplicate.

SMILES	viability at 4 µM [1] [%]	viability at 10 µM [1] [%]	pEC50 [1]	viability at 4 µM [2] [%]	viability at 10 µM [2] [%]	pEC50 [2]	pEC50 [3]	viability at 4 µM [3] [%]	viability at 10 µM [3] [%]	viability at 4 µM [4] [%]	viability at 10 µM [4] [%]	pEC50 [4]	viability at 4 µM [5] [%]	viability at 10 µM [5] [%]	pEC50 [5]	viability at 4 µM [6] [%]	viability at 10 µM [6] [%]	pEC50 [6]	viability at 4 µM [7] [%]	viability at 10 µM [7] [%]	other results
N#Cc1c(NCc2ccc(Cl)cc2)nc2ccccc2c1N1CCCC(NC2CCCC2)C1 (centres unmarked) [Compound 162CN, 2-(4-chlorobenzylamino)-3-cyano-4-[3-(cyclopentylamino)piperidin-1-yl]quinoline]	37.1	0.2	5.30 to 6.30	0.8	0.1	5.30 to 6.30	5.30 to 6.30	12	0.2	0.3	0.1	5.30 to 6.30	45.6	0.3	5.30 to 6.30	0.4	0.2	5.30 to 6.30	75.3	0.8	–
N#Cc1c(NCc2ccc(Cl)cc2)nc2ccccc2c1N1CCCC(N2CCCC2)C1 (centres unmarked) [Compound 176CN, 2-(4-chlorobenzylamino)-3-cyano-4-[3-(pyrrolidin-1-yl)piperidin-1-yl]quinoline]	96.4	64.7	–	84.3	42.7	–	–	89.8	39.3	93	60.2	–	95.6	75.2	–	114	65.4	–	93.2	70.6	–
N#Cc1c(NCc2ccc(Cl)cc2)nc2ccccc2c1N1CCCC(N2CCOCC2)C1 (centres unmarked) [Compound 178CN, 2-(4-chlorobenzylamino)-3-cyano-4-[3-(morpholino)piperidin-1-yl]quinoline]	95.3	81.9	–	95.7	77	–	–	99.6	88.9	101	97.5	–	123	106	–	95.5	90.2	–	100	96.6	–
CC(C)(C)OC(=O)NC1CCN(c2c(C#N)c(NCc3ccc(Cl)cc3)nc3ccccc23)CC1 [Compound 182CN, 2-(4-chlorobenzylamino)-3-cyano-4-{4-[(tert-butyloxycarbonyl)amino]piperidin-1-yl}quinoline]	86	76.2	–	66.9	47.7	–	–	89.9	83.9	91.6	89.8	–	86.9	48.7	–	94.4	90.2	–	100	95.3	–
CCN(CC)C1CCN(c2c(C#N)c(NCc3ccc(Cl)cc3)nc3ccccc23)CC1 [Compound 184CN, 2-(4-chlorobenzylamino)-3-cyano-4-[4-(diethylamino)piperidin-1-yl]quinoline]	74.7	0.7	5.00 to 5.30	65.7	0.9	5.00 to 5.30	5.00 to 5.30	72.6	1.1	72.4	0.8	5.00 to 5.30	95.1	0.7	5.00 to 5.30	53.7	0.8	5.30 to 6.30	91.8	46.6	pEC50 ([7]; PANC-1 cell line, 72 h incubation, CellTiter-Glo, read-out: EC50 (growth inhibition assay of PANC-1 cell line)): 5.00 to 5.30
